From patent publication US20100267561A1, “HERBICIDAL PYRIDAZINONE DERIVATIVES” (priority 2007, published 2010)

What was measured:
Assay type in all cases: in vivo
[1] = system: wild oat (Avena fatua); experiment: Test B pre-/postemergence plant response
In short: (§1)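 Visual scoring from 0 (no effect) to 100 (complete control) against untreated controls was done 13 to 15 days after greenhouse treatment. Chemicals were formulated in a surfactant-containing non-phytotoxic solvent and applied to soil preemergence or to 1- to 4-leaf (2-18 cm) plants postemergence.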

[2] = system: downy bromegrass (Bromus tectorum); experiment: Test B pre-/postemergence plant response; conditions: for Bromegrass, Downy plant response rating: 8 g ai/ha
In short: as §1

[3] = system: woolly cupgrass (Eriochloa villosa); experiment: Test B pre-/postemergence plant response
In short: as §1

[4] = system: Russian thistle (Salsola iberica); experiment: Test B pre-/postemergence plant response; conditions: Preemergence
In short: as §1

[5] = system: pigweed (Amaranthus retroflexus); experiment: Test B pre-/postemergence plant response
In short: as §1

[6] = system: corn (Zea mays); experiment: Test B pre-/postemergence plant response
In short: as §1

[7] = system: large crabgrass (Digitaria sanguinalis); experiment: Test B pre-/postemergence plant response
In short: as §1

[8] = system: giant foxtail (Setaria faberii); experiment: Test B pre-/postemergence plant response
In short: as §1

[9] = system: green foxtail (Setaria viridis); experiment: Test B pre-/postemergence plant response
In short: as §1

[10] = system: eastern black (E.B.) nightshade (Solanum ptycanthum); experiment: Test B pre-/postemergence plant response; conditions: Preemergence
In short: as §1

[11] = system: rice (Oryza sativa); experiment: Test B flooded paddy test plant response
In short: (§2)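 Compounds were added directly to paddy water over 2-leaf-stage plants in pots flooded 3 cm above soil, water depth maintained. Visual injury scored against controls after 13 to 15 days in greenhouse, 0 (none) to 100 (complete control); dash indicates no result.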

[12] = system: barnyardgrass (Echinochloa crus-galli); experiment: Test B flooded paddy test plant response
In short: as §2

[13] = system: ducksalad (Heteranthera limosa); experiment: Test B flooded paddy test plant response
In short: as §2

[14] = system: umbrella sedge (Cyperus difformis); experiment: Test B flooded paddy test plant response
In short: as §2

[15] = 8 g ai/ha, postemergence, 0-100 scale
[16] = 16 g ai/ha, postemergence, 0-100 scale
[17] = Postemergence, 31 g ai/ha, scale 0 to 100
[18] = Postemergence, 62 g ai/ha, scale 0 to 100, 0 no effect, 100 complete control
[19] = Preemergence, 31 g ai/ha, scale 0 to 100 (0 no effect, 100 complete control)
[20] = Preemergence, 62 g ai/ha, 0 to 100 scale, 0 no effect, 100 complete control
[21] = Preemergence, 8 g ai/ha, scale 0 to 100
[22] = Preemergence, 16 g ai/ha, scale 0 to 100
[23] = Postemergence, 16 g ai/ha, scale 0 to 100
[24] = Preemergence, 16 g ai/ha, scale 0 to 100 (0 no effect, 100 complete control)
[25] = 31 g ai/ha, scale 0 to 100 (0 no effect, 100 complete control)
[26] = 62 g ai/ha, 0 to 100 scale, 0 no effect, 100 complete control
[27] = Flood (flooded paddy test), 62 g ai/ha, scale 0 to 100, 0 no effect, 100 complete control
[28] = Flood (flooded paddy test), 125 g ai/ha, scale 0 to 100, 0 no effect, 100 complete control
[29] = Flood (flooded paddy test), 250 g ai/ha, scale 0 to 100, 0 no effect, 100 complete control
[30] = Flood, 31 g ai/ha, scale 0 to 100
[31] = Postemergence, 31 g ai/ha, scale 0 to 100, 0 no effect, 100 complete control
[32] = Preemergence, 31 g ai/ha, 0 to 100 scale, 0 no effect, 100 complete control
[33] = Preemergence, 62 g ai/ha, scale 0 to 100
[34] = 16 g ai/ha, scale 0 to 100 (0 no effect, 100 complete control)
[35] = 31 g ai/ha, 0 to 100 scale, 0 no effect, 100 complete control

CCc1cc(-c2ccc(C(F)(F)F)cc2)nn1-c1c(O)cnn(CC)c1=O [Compound 67]
Oat, Wild plant response rating [1, 15]: 100 | Oat, Wild plant response rating [1, 16]: 100 | Plant response rating, Oat, Wild [1, 17]: 100 | Plant response rating, Oat, Wild [1, 18]: 100 | Plant response rating, Oat, Wild [1, 19]: 95 | Plant response rating, Oat, Wild [1, 20]: 100 | Oat, Wild plant response rating [1, 21]: 90 | Oat, Wild plant response rating [1, 22]: 95 | Bromegrass, Downy plant response rating ([2]; postemergence, 0-100 scale): 55 | Plant response rating, Bromegrass, Downy [2, 23]: 80 | Plant response rating, Bromegrass, Downy [2, 17]: 80 | Plant response rating, Bromegrass, Downy [2, 18]: 100 | Plant response rating, Bromegrass, Downy [2, 24]: 90 | Plant response rating, Bromegrass, Downy [2, 19]: 100 | Plant response rating, Bromegrass, Downy [2, 20]: 100 | Bromegrass, Downy plant response rating ([2]; Preemergence, scale 0 to 100): 50 | Cupgrass, Woolly plant response rating [3, 15]: 90 | Plant response rating, Cupgrass, Woolly [3, 23]: 100 | Plant response rating, Cupgrass, Woolly [3, 17]: 100 | Plant response rating, Cupgrass, Woolly [3, 18]: 100 | Plant response rating, Cupgrass, Woolly [3, 19]: 0 | Plant response rating, Cupgrass, Woolly [3, 20]: 0 | Cupgrass, Woolly plant response rating [3, 21]: 0 | Cupgrass, Woolly plant response rating [3, 22]: 0 | Plant response rating, Russian Thistle [4, 25]: 0 | Plant response rating, Russian Thistle [4, 26]: 0 | Russian Thistle plant response rating ([4]; 8 g ai/ha, scale 0 to 100): 0 | Russian Thistle plant response rating ([4]; 16 g ai/ha, scale 0 to 100): 0 | Pigweed plant response rating [5, 15]: 0 | Pigweed plant response rating [5, 16]: 0 | Plant response rating, Pigweed [5, 17]: 0 | Plant response rating, Pigweed [5, 18]: 0 | Plant response rating, Pigweed [5, 19]: 0 | Plant response rating, Pigweed [5, 20]: 0 | Pigweed plant response rating [5, 21]: 0 | Pigweed plant response rating [5, 22]: 0 | Corn plant response rating [6, 15]: 75 | Plant response rating, Corn [6, 23]: 90 | Plant response rating, Corn [6, 17]: 100 | Plant response rating, Corn [6, 18]: 100 | Plant response rating, Corn [6, 19]: 100 | Plant response rating, Corn [6, 20]: 100 | Corn plant response rating [6, 21]: 60 | Corn plant response rating [6, 22]: 98 | Crabgrass, Large plant response rating [7, 15]: 70 | Plant response rating, Crabgrass, Large [7, 23]: 98 | Plant response rating, Crabgrass, Large [7, 17]: 100 | Plant response rating, Crabgrass, Large [7, 18]: 100 | Plant response rating, Crabgrass, Large [7, 19]: 0 | Plant response rating, Crabgrass, Large [7, 20]: 0 | Crabgrass, Large plant response rating [7, 21]: 0 | Crabgrass, Large plant response rating [7, 22]: 0 | Foxtail, Giant plant response rating [8, 15]: 85 | Plant response rating, Foxtail, Giant [8, 23]: 95 | Plant response rating, Foxtail, Giant [8, 17]: 100 | Plant response rating, Foxtail, Giant [8, 18]: 100 | Plant response rating, Foxtail, Giant [8, 19]: 0 | Plant response rating, Foxtail, Giant [8, 20]: 0 | Foxtail, Giant plant response rating [8, 21]: 0 | Foxtail, Giant plant response rating [8, 22]: 0 | Foxtail, Green plant response rating [9, 15]: 65 | Plant response rating, Foxtail, Green [9, 23]: 70 | Plant response rating, Foxtail, Green [9, 17]: 98 | Plant response rating, Foxtail, Green [9, 18]: 100 | Plant response rating, Foxtail, Green [9, 19]: 100 | Plant response rating, Foxtail, Green [9, 20]: 100 | Foxtail, Green plant response rating [9, 21]: 100 | Foxtail, Green plant response rating [9, 22]: 100 | Plant response rating, Nightshade, E. B. [10, 25]: 0 | Plant response rating, Nightshade, E. B. [10, 26]: 0 | Nightshade, E. B. plant response rating ([10]; 8 g ai/ha, scale 0 to 100): 0 | Nightshade, E. B. plant response rating ([10]; 16 g ai/ha, scale 0 to 100): 0 | Plant response rating, Rice [11, 27]: 0 | Plant response rating, Rice [11, 28]: 0 | Plant response rating, Rice [11, 29]: 15 | Plant response rating, Rice [11, 30]: 0 | Plant response rating, Barnyardgrass [12, 27]: 25 | Plant response rating, Barnyardgrass [12, 28]: 35 | Plant response rating, Barnyardgrass [12, 29]: 50 | Plant response rating, Barnyardgrass [12, 30]: 0 | Plant response rating, Ducksalad [13, 27]: 0 | Plant response rating, Ducksalad [13, 28]: 0 | Plant response rating, Ducksalad [13, 29]: 75 | Plant response rating, Ducksalad [13, 30]: 0 | Plant response rating, Sedge, Umbrella [14, 27]: 0 | Plant response rating, Sedge, Umbrella [14, 28]: 0 | Plant response rating, Sedge, Umbrella [14, 29]: 0 | Plant response rating, Sedge, Umbrella [14, 30]: 0

COC(=O)Oc1cnn(C)c(=O)c1-n1nc(-c2ccc(Cl)cc2)cc1C [Compound 33]
Oat, Wild plant response rating [1, 15]: 90 | Plant response rating, Oat, Wild [1, 23]: 95 | Plant response rating, Oat, Wild [1, 31]: 95 | Plant response rating, Oat, Wild [1, 18]: 98 | Plant response rating, Oat, Wild [1, 24]: 80 | Plant response rating, Oat, Wild [1, 32]: 80 | Plant response rating, Oat, Wild [1, 33]: 90 | Oat, Wild plant response rating [1, 21]: 70 | Bromegrass, Downy plant response rating ([2]; postemergence, 0-100 scale): 5 | Plant response rating, Bromegrass, Downy [2, 23]: 50 | Plant response rating, Bromegrass, Downy [2, 31]: 70 | Plant response rating, Bromegrass, Downy [2, 18]: 80 | Plant response rating, Bromegrass, Downy [2, 24]: 0 | Plant response rating, Bromegrass, Downy [2, 32]: 80 | Plant response rating, Bromegrass, Downy [2, 33]: 100 | Bromegrass, Downy plant response rating ([2]; Preemergence, scale 0 to 100): 0 | Cupgrass, Woolly plant response rating [3, 15]: 98 | Plant response rating, Cupgrass, Woolly [3, 23]: 100 | Plant response rating, Cupgrass, Woolly [3, 31]: 100 | Plant response rating, Cupgrass, Woolly [3, 18]: 100 | Plant response rating, Cupgrass, Woolly [3, 24]: 90 | Plant response rating, Cupgrass, Woolly [3, 32]: 100 | Plant response rating, Cupgrass, Woolly [3, 33]: 100 | Cupgrass, Woolly plant response rating [3, 21]: 80 | Plant response rating, Russian Thistle [4, 34]: 0 | Plant response rating, Russian Thistle [4, 35]: 0 | Plant response rating, Russian Thistle ([4]; 62 g ai/ha, scale 0 to 100): 80 | Russian Thistle plant response rating ([4]; 8 g ai/ha, scale 0 to 100): 0 | Pigweed plant response rating [5, 15]: 0 | Plant response rating, Pigweed [5, 23]: 0 | Plant response rating, Pigweed [5, 31]: 0 | Plant response rating, Pigweed [5, 18]: 0 | Plant response rating, Pigweed [5, 24]: 0 | Plant response rating, Pigweed [5, 32]: 0 | Plant response rating, Pigweed [5, 33]: 0 | Pigweed plant response rating [5, 21]: 0 | Corn plant response rating [6, 15]: 80 | Plant response rating, Corn [6, 23]: 95 | Plant response rating, Corn [6, 31]: 100 | Plant response rating, Corn [6, 18]: 100 | Plant response rating, Corn [6, 24]: 85 | Plant response rating, Corn [6, 32]: 90 | Plant response rating, Corn [6, 33]: 95 | Corn plant response rating [6, 21]: 50 | Crabgrass, Large plant response rating [7, 15]: 70 | Plant response rating, Crabgrass, Large [7, 23]: 90 | Plant response rating, Crabgrass, Large [7, 31]: 90 | Plant response rating, Crabgrass, Large [7, 18]: 100 | Plant response rating, Crabgrass, Large [7, 24]: 95 | Plant response rating, Crabgrass, Large [7, 32]: 95 | Plant response rating, Crabgrass, Large [7, 33]: 98 | Crabgrass, Large plant response rating [7, 21]: 70 | Foxtail, Giant plant response rating [8, 15]: 100 | Plant response rating, Foxtail, Giant [8, 23]: 100 | Plant response rating, Foxtail, Giant [8, 31]: 100 | Plant response rating, Foxtail, Giant [8, 18]: 100 | Plant response rating, Foxtail, Giant [8, 24]: 100 | Plant response rating, Foxtail, Giant [8, 32]: 100 | Plant response rating, Foxtail, Giant [8, 33]: 100 | Foxtail, Giant plant response rating [8, 21]: 100 | Foxtail, Green plant response rating [9, 15]: 85 | Plant response rating, Foxtail, Green [9, 23]: 85 | Plant response rating, Foxtail, Green [9, 31]: 100 | Plant response rating, Foxtail, Green [9, 18]: 100 | Plant response rating, Foxtail, Green [9, 24]: 100 | Plant response rating, Foxtail, Green [9, 32]: 100 | Plant response rating, Foxtail, Green [9, 33]: 100 | Foxtail, Green plant response rating [9, 21]: 100 | Plant response rating, Nightshade, E. B. [10, 34]: 0 | Plant response rating, Nightshade, E. B. [10, 35]: 0 | Plant response rating, Nightshade, E. B. ([10]; 62 g ai/ha, scale 0 to 100): 0 | Nightshade, E. B. plant response rating ([10]; 8 g ai/ha, scale 0 to 100): 0 | Plant response rating, Rice [11, 27]: 65 | Plant response rating, Rice [11, 28]: 75 | Plant response rating, Rice [11, 29]: 80 | Plant response rating, Rice [11, 30]: 30 | Plant response rating, Barnyardgrass [12, 27]: 60 | Plant response rating, Barnyardgrass [12, 28]: 85 | Plant response rating, Barnyardgrass [12, 29]: 100 | Plant response rating, Barnyardgrass [12, 30]: 30 | Plant response rating, Ducksalad [13, 27]: 0 | Plant response rating, Ducksalad [13, 28]: 40 | Plant response rating, Ducksalad [13, 29]: 50 | Plant response rating, Ducksalad [13, 30]: 0 | Plant response rating, Sedge, Umbrella [14, 27]: 20 | Plant response rating, Sedge, Umbrella [14, 28]: 35 | Plant response rating, Sedge, Umbrella [14, 29]: 60 | Plant response rating, Sedge, Umbrella [14, 30]: 0
